In patent US20030232741A1, “Methods of treatment of glaucoma and other conditions mediated by NOS-2 expression via inhibition of the EGFR pathway” (Washington University, priority 2002, published 2003):
“Also recorded” adds a separate entry of the source.

Experiments:
Format in all cases: cell-based
NOS-2 mRNA = NOS-2 mRNA induction in human ONH astrocytes (semi-quantitative RT-PCR); conditions: AG82 7 μM, SB202190 380 nM, SN-50 50 μg/ml; for NOS-2 mRNA induced by elevated hydrostatic pressure: elevated hydrostatic pressure 12 hrs, AG18 40 μM
Method: (§1) Twelve normal human (aged 22-51) eyes were obtained within 24 hrs after death. Lamina cribrosa astrocytes were obtained as described previously.^5 The second-passage cell cultures, which had over 95% cells positive for GFAP, were grown to 60-80% confluency and placed in serum free medium for one week before use.
Astrocytes grown on coverslips were placed under sterile, disposable polypropylene cylinders 6 cm high and 3 cm in diameter. Hydrostatic pressure was elevated by 5 cm of serum free medium, conditioned at 37° C. in a 5% CO2 humidified atmosphere. As control, the same number of cells on a coverslip was placed in 140 mm Petri dishes with 0.3 cm height of media in a volume equivalent to that used in the hydrostatic pressure experiments. Both pressurized and control cultures were maintained in a tissue culture incubator at 37° C. with a 5% CO2 humidified atmosphere for various periods. AG82 or AG18 (Calbiochem, Darmstadt, Germany) was added to the cell media 30 min before and during the period of exposure to elevated hydrostatic pressure or IL-1β/IFN-γ at final concentrations of 7 μM or 40 μM, respectively. SB202190 (Calbiochem, Darmstadt, Germany) was added to the cell media 30 min before and during the period of exposure to elevated hydrostatic pressure or IL-1β/IFN-γ at a final concentrations of 380 nM. SN-50 (BioMol, Plymouth Meeting, Pa.) was added to the cell media 30 min before and during the period of exposure to elevated hydrostatic pressure or IL-1β/IFN-γ at a final concentrations of 50 μg/ml. Monoclonal anti-EGFR antibody (Santa Cruz Biotechnology Inc, Santa Cruz, Calif.) which recognizes an EGF receptor cell surface epitope and is an antagonist of EGFR, was added to the cell media 12 hrs before and during the period of exposure to elevated hydrostatic pressure or EGF (100 ng/ml)(Sigma-Aldrich Corp., St. Louis, Mo.) at a working dilution of 1:20. […]
Semi-quantitative RT-PCR was performed as published previously.^8

NOS-2 = NOS-2 protein induction in human ONH astrocytes (immunoblot); conditions: for NOS-2 protein induced by elevated hydrostatic pressure: elevated hydrostatic pressure 48 hrs, AG18 40 μM, anti-EGFR antibody 1:20; for induction of NOS-2 in response to cytokines (protein/mRNA not specified): IL-1β/IFN-γ
Method: as §1
Astrocytes grown on coverslips were placed under sterile, disposable polypropylene cylinders 6 cm high and 3 cm in diameter. Hydrostatic pressure was elevated by 5 cm of serum free medium, conditioned at 37° C. in a 5% CO2 humidified atmosphere. As control, the same number of cells on a coverslip was placed in 140 mm Petri dishes with 0.3 cm height of media in a volume equivalent to that used in the hydrostatic pressure experiments. Both pressurized and control cultures were maintained in a tissue culture incubator at 37° C. with a 5% CO2 humidified atmosphere for various periods. AG82 or AG18 (Calbiochem, Darmstadt, Germany) was added to the cell media 30 min before and during the period of exposure to elevated hydrostatic pressure or IL-1β/IFN-γ at final concentrations of 7 μM or 40 μM, respectively. SB202190 (Calbiochem, Darmstadt, Germany) was added to the cell media 30 min before and during the period of exposure to elevated hydrostatic pressure or IL-1β/IFN-γ at a final concentrations of 380 nM. SN-50 (BioMol, Plymouth Meeting, Pa.) was added to the cell media 30 min before and during the period of exposure to elevated hydrostatic pressure or IL-1β/IFN-γ at a final concentrations of 50 μg/ml. Monoclonal anti-EGFR antibody (Santa Cruz Biotechnology Inc, Santa Cruz, Calif.) which recognizes an EGF receptor cell surface epitope and is an antagonist of EGFR, was added to the cell media 12 hrs before and during the period of exposure to elevated hydrostatic pressure or EGF (100 ng/ml)(Sigma-Aldrich Corp., St. Louis, Mo.) at a working dilution of 1:20. Astrocytes were stimulated by the addition to the media of 200 U/ml human IFN-γ (Sigma-Aldrich Corp, Saint Louis, Mo.) and 10 ng/ml human IL-1β (Sigma-Aldrich Corp, Saint Louis, Mo.) for 12 or 48 hours.
NOS-2 immunoblot was as described previously.^5 For EGFR and p-EGFR immunoblot,^11 astrocytes were lysed in buffer (20 mm HEPES, pH 7.0, 10 mM KCI, 2 mM MgCl2, 0.5% Nonidet P40, 1 mM Na3VO4, 1 mM PMSF, 0.15 U ml^−1 aprotinin) and homogenized. The non-nuclear and nuclear fractions were separated by centrifugation at 1,500 g for 5 min to sediment the nuclei. The nuclear pellet was washed with the lysis buffer and resuspended in the same buffer containing 0.5 M NaCl to extract nuclear proteins. 20 μg protein of each non-nuclear fraction and 40 μg of each nuclear fraction were separated by 10% SDS-PAGE and transferred to a nitrocellulose membrane. Immunoblotting was performed with specific primary antibody against EGFR and p-EGFR followed by peroxidase-conjugated secondary antibody (Santa Cruz Biotechnology Inc, Santa Cruz, Calif.) and imaged by the enhanced chemiluminescence detection system (Amersham Life Science Inc, Arlington Heights, Ill.).

p-EGFR [1] = biological target: T1, p-EGFR (Homo sapiens, UniProt P00533); experiment: Immunoblot for p-EGFR in nuclear and non-nuclear fractions of human ONH astrocytes exposed to elevated hydrostatic pressure; conditions: elevated hydrostatic pressure 10 min; AG82 7 μM added 30 min before and during
T1 sequence (P00533 25-1210): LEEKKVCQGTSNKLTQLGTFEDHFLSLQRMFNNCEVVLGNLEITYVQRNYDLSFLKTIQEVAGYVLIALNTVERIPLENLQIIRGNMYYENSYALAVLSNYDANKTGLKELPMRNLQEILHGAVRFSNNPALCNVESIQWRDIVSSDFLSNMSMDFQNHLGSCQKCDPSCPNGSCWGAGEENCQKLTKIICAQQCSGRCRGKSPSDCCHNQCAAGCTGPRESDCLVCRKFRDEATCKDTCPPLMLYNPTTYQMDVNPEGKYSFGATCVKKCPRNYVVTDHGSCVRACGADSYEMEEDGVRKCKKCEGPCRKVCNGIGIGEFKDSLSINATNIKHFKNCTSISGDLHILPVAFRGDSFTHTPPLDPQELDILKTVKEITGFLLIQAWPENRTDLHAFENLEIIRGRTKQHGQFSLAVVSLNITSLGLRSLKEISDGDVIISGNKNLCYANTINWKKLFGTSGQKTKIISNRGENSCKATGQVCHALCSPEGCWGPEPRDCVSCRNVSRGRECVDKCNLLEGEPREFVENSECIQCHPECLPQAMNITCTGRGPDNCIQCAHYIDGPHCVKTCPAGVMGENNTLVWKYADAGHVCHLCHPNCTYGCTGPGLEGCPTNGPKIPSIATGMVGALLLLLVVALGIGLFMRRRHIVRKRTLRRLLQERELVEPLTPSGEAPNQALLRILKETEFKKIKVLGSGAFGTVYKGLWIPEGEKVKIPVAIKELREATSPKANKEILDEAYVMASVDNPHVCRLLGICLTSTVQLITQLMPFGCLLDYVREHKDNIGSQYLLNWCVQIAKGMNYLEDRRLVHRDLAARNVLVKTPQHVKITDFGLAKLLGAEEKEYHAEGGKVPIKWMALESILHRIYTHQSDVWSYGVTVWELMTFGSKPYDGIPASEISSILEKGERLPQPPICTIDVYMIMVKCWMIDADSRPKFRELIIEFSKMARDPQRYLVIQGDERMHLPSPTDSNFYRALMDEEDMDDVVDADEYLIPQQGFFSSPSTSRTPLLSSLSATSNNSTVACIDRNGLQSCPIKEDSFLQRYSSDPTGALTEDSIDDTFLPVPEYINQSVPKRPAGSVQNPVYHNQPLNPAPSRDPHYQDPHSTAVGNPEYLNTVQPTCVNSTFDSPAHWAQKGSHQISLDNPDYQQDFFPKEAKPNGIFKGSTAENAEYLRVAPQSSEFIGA
Method: NOS-2 immunoblot was as described previously.^5 For EGFR and p-EGFR immunoblot,^11 astrocytes were lysed in buffer (20 mm HEPES, pH 7.0, 10 mM KCI, 2 mM MgCl2, 0.5% Nonidet P40, 1 mM Na3VO4, 1 mM PMSF, 0.15 U ml^−1 aprotinin) and homogenized. The non-nuclear and nuclear fractions were separated by centrifugation at 1,500 g for 5 min to sediment the nuclei. […]

p-EGFR [2] = biological target: T1, p-EGFR; experiment: Immunocytochemistry for p-EGFR in cultured human ONH astrocytes exposed to elevated hydrostatic pressure; conditions: elevated hydrostatic pressure 10 min; AG82 7 μM added 30 min before and during
Method: Astrocytes grown on coverslips were placed under sterile, disposable polypropylene cylinders 6 cm high and 3 cm in diameter. Hydrostatic pressure was elevated by 5 cm of serum free medium, conditioned at 37° C. in a 5% CO2 humidified atmosphere. As control, the same number of cells on a coverslip was placed in 140 mm Petri dishes with 0.3 cm height of media in a volume equivalent to that used in the hydrostatic pressure experiments. Both pressurized and control cultures were maintained in a tissue culture incubator at 37° C. with a 5% CO2 humidified atmosphere for various periods. […]
As described previously,^5 cells grown on coverslips were fixed in 4% paraformaldehyde, incubated with specific primary antibodies against EGFR, p-EGFR or GFAP and appropriate fluorescent conjugated secondary antibodies (Molecular Probes Inc., Eugene, Ore), and visualized by fluorescence microscopy. […]

[3] = AG82 7 μM, SB202190 380 nM, SN-50 50 μg/ml

Row | Compound | NOS-2 mRNA induced by elevated hydrostatic pressure (NOS-2 mRNA) | NOS-2 protein induced by elevated hydrostatic pressure (NOS-2; [3]) | induction of NOS-2 in response to cytokines (protein/mRNA not specified) (NOS-2; human optic nerve astrocytes) | other results
1 | N#CC(C#N)=Cc1ccc(O)c(O)c1 [AG18, α-Cyano-(3,4-dihydroxy)cinnamonitrile] | prevented both the increased protein level and the mRNA level of NOS-2; also recorded: significantly blocked the appearances of NOS-2 mRNA and protein | prevented both the increased protein level and the mRNA level of NOS-2; also recorded: significantly blocked the appearances of NOS-2 mRNA and protein | – | –
2 | N#CC(C#N)=Cc1cc(O)c(O)c(O)c1 [AG82, α-Cyano-(3,4,5-trihydroxy)cinnamonitrile] | almost completely prevented; also recorded: affects the transcription of the NOS-2 gene to mRNA in response to elevated hydrostatic pressure; also recorded: significantly blocked the appearances of NOS-2 mRNA and protein | significantly prevented the increased protein level of NOS-2; also recorded: significantly blocked the appearance of NOS-2 protein in response to elevated hydrostatic pressure; also recorded: significantly blocked the appearances of NOS-2 mRNA and protein | does not inhibit the induction of NOS-2 in response to cytokines | tyrosine phosphorylation of EGFR (p-EGFR) in non-nuclear and nuclear extracts by immunoblot (p-EGFR [1]): significantly blocked the tyrosine phosphorylation of EGFR in both non-nuclear and nuclear extracts; also recorded: completely prevents the increase in p-EGFR in both nuclear and non-nuclear fractions; immunocytochemical labeling for p-EGFR in response to elevated hydrostatic pressure (p-EGFR [2]): blocked the increased immunocytochemical labeling for p-EGFR in the cytoplasm in response to elevated hydrostatic pressure and, most notably, there was no nuclear labeling for p-EGFR; also recorded: prevents the nuclear labeling for p-EGFR; induction of NOS-2 in response to elevated hydrostatic pressure (protein/mRNA not specified) (NOS-2; human optic nerve astrocytes, elevated hydrostatic pressure): blocks induction of NOS-2 in response to elevated hydrostatic pressure
3 | Oc1ccc(-c2nc(-c3ccncc3)c(-c3ccc(F)cc3)[nH]2)cc1 [SD202190] | – | – | blocks the induction of NOS-2 in human optic nerve astrocytes in response to cytokines | NOS-2 mRNA induced by cytokines (NOS-2 mRNA; 200 U/ml IFN-γ and 10 ng/ml IL-1β, 12 hours): affects the transcription of the NOS-2 gene to mRNA in response to cytokines; NOS-2 protein induced by cytokines (NOS-2; 200 U/ml IFN-γ and 10 ng/ml IL-1β, 48 hours, AG82 7 μM, SB202190 380 nM, SN-50 50 μg/ml): significantly blocked the appearance of NOS-2 protein in response to cytokine stimulation
4 | EGF: epidermal growth factor, EGFR ligand (Sigma-Aldrich), added at 100 ng/ml (NSDSECPLSHDGYCLHDGVCMYIEALDKYACNCVVGYIGERCQYRDLKWWELR; UniProt P01133 971-1023, looked up) | – | – | – | NOS-2 protein level in astrocytes treated with EGF (Western blot and immunocytochemistry) (NOS-2; 100 ng/ml EGF in culture medium for 48 hrs, versus non-treated astrocytes): significantly increased; also recorded: increased labeling for NOS-2 and GFAP
